From the supplement of paper PMC6045584
± gives the standard deviation of the averaged measurements.

Columns and labels:
CANERTINIB = compound: C=CC(=O)Nc1cc2c(Nc3ccc(F)c(Cl)c3)ncnc2cc1OCCCN1CCOCC1 [CANERTINIB]; assay: surviving fraction relative to DMSO-only wells; higher = less growth inhibition; conditions: exposure time: 5 days
In short: (§1)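 Surviving fraction was calculated by normalising CellTiter-Glo luminescence to the median of DMSO-only wells. Tumour cell lines in log phase were seeded in 384-well plates at 250–500 cells per well, and 24 hours later were exposed continuously for five days to inhibitors at 0.5, 1, 5, 10, 50, 100, 500 and 1000 nM.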

SNX-5422 [1] = compound: T1, CC1(C)CC(=O)c2c(C(F)(F)F)nn(-c3ccc(C(N)=O)c(N[C@H]4CC[C@H](OC(=O)CN)CC4)c3)c2C1 [SNX-5422]; assay: as above; conditions: exposure time: 5 days
In short: as §1

SAPACITABINE = compound: CCCCCCCCCCCCCCCC(=O)Nc1ccn([C@@H]2O[C@H](CO)[C@@H](O)[C@@H]2C#N)c(=O)n1 [SAPACITABINE]; assay: as above; conditions: exposure time: 5 days
In short: as §1

BI-2536 [2] = compound: T2, CC[C@@H]1C(=O)N(C)c2cnc(Nc3ccc(C(=O)NC4CCN(C)CC4)cc3OC)nc2N1C1CCCC1 [BI-2536]; assay: as above; conditions: exposure time: 5 days
In short: as §1

AFATINIB [3] = compound: T3, CN(C)C/C=C/C(=O)Nc1cc2c(Nc3ccc(F)c(Cl)c3)ncnc2cc1O[C@H]1CCOC1 [AFATINIB]; assay: as above; conditions: exposure time: 5 days
In short: as §1

MDV3100 = compound: CNC(=O)c1ccc(N2C(=S)N(c3ccc(C#N)c(C(F)(F)F)c3)C(=O)C2(C)C)cc1F [MDV3100]; assay: as above; conditions: exposure time: 5 days
In short: as §1

[4] = compound: Cn1cc(C2=Nc3cc(NC(=O)C(N)C4CCCCC4)cc4c3C2=CNNC4=O)cn1; assay: as above; conditions: exposure time: 5 days
In short: as §1

TIOGUANINE [5] = compound: T4, Nc1nc2[nH]cnc2c(=S)[nH]1 [TIOGUANINE]; assay: as above; conditions: exposure time: 5 days
In short: as §1

SNX-5422 [6] = compound: T1, SNX-5422; assay: area under dose-response curve of surviving fraction (unscaled, Aref=0) (surviving fraction x log10(nM)); higher = more resistant; conditions: exposure time: 5 days; dose range 0.5-1000 nM
In short: (§2)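 Inhibitor was applied to tumour cell lines at eight concentrations (0.5 to 1000 nM) for five days in 384-well plates. Luminescence from CellTiter-Glo, scaled to DMSO-only wells, gave surviving fractions in three screens per line, and these were fitted by 3-parameter logistic regression with the drc R package. The area under the curve is an unscaled activity area. Aref was 0, and dose was on a log10 scale.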

BI-2536 [7] = compound: T2, BI-2536; assay: as above; conditions: exposure time: 5 days; dose range 0.5-1000 nM
In short: as §2

AFATINIB [8] = compound: T3, AFATINIB; assay: as above; conditions: exposure time: 5 days; dose range 0.5-1000 nM
In short: as §2

[9] = compound: Cn1cc(C2=Nc3cc(NC(=O)C(N)C4CCCCC4)cc4c3C2=CNNC4=O)cn1; assay: as above; conditions: exposure time: 5 days; dose range 0.5-1000 nM
In short: as §2

TIOGUANINE [10] = compound: T4, TIOGUANINE; assay: as above; conditions: exposure time: 5 days; dose range 0.5-1000 nM
In short: as §2

SG28 HEADNECK
surviving fraction (CANERTINIB; 0.5 nM): 0.824 ± 0.055
surviving fraction (CANERTINIB; 1 nM): 0.803 ± 0.046
surviving fraction (CANERTINIB; 5 nM): 0.627 ± 0.081
surviving fraction (CANERTINIB; 10 nM): 0.621 ± 0.089
surviving fraction (CANERTINIB; 50 nM): 0.642 ± 0.0092
surviving fraction (CANERTINIB; 100 nM): 0.498 ± 0.059
surviving fraction (CANERTINIB; 500 nM): 0.364 ± 0.073
surviving fraction (CANERTINIB; 1000 nM): 0.366 ± 0.021
surviving fraction (SNX-5422 [1]; 0.5 nM): 1.05 ± 0.11
surviving fraction (SNX-5422 [1]; 1 nM): 1.12 ± 0.019
surviving fraction (SNX-5422 [1]; 5 nM): 1 ± 0.076
surviving fraction (SNX-5422 [1]; 10 nM): 1 ± 0.071
surviving fraction (SNX-5422 [1]; 50 nM): 0.598 ± 0.042
surviving fraction (SNX-5422 [1]; 100 nM): 0.299 ± 0.023
surviving fraction (SNX-5422 [1]; 500 nM): 0.117 ± 0.019
surviving fraction (SNX-5422 [1]; 1000 nM): 0.125 ± 0.015
surviving fraction (SAPACITABINE; 0.5 nM): 0.756 ± 0.14
surviving fraction (SAPACITABINE; 1 nM): 0.629 ± 0.18
surviving fraction (SAPACITABINE; 5 nM): 0.721 ± 0.26
surviving fraction (SAPACITABINE; 10 nM): 0.216 ± 0.099
surviving fraction (SAPACITABINE; 50 nM): 0.996 ± 0.12
surviving fraction (SAPACITABINE; 100 nM): 0.864 ± 0.054
surviving fraction (SAPACITABINE; 500 nM): 0.934 ± 0.11
surviving fraction (SAPACITABINE; 1000 nM): 0.422 ± 0.0014
surviving fraction (BI-2536 [2]; 0.5 nM): 1.19 ± 0.14
surviving fraction (BI-2536 [2]; 1 nM): 1.063 ± 0.0017
surviving fraction (BI-2536 [2]; 5 nM): 0.864 ± 0.04
surviving fraction (BI-2536 [2]; 10 nM): 0.87 ± 0.046
surviving fraction (BI-2536 [2]; 50 nM): 0.961 ± 0.11
surviving fraction (BI-2536 [2]; 100 nM): 0.687 ± 0.064
surviving fraction (BI-2536 [2]; 500 nM): 0.478 ± 0.084
surviving fraction (BI-2536 [2]; 1000 nM): 0.279 ± 0.053
surviving fraction (AFATINIB [3]; 0.5 nM): 0.907 ± 0.056
surviving fraction (AFATINIB [3]; 1 nM): 0.828 ± 0.089
surviving fraction (AFATINIB [3]; 5 nM): 0.669 ± 0.083
surviving fraction (AFATINIB [3]; 10 nM): 0.523 ± 0.056
surviving fraction (AFATINIB [3]; 50 nM): 0.441 ± 0.052
surviving fraction (AFATINIB [3]; 100 nM): 0.452 ± 0.057
surviving fraction (AFATINIB [3]; 500 nM): 0.342 ± 0.029
surviving fraction (AFATINIB [3]; 1000 nM): 0.259 ± 0.035
surviving fraction (MDV3100; 0.5 nM): 1.19 ± 0.035
surviving fraction (MDV3100; 1 nM): 1.06 ± 0.0078
surviving fraction (MDV3100; 5 nM): 1.02 ± 0.086
surviving fraction (MDV3100; 10 nM): 0.762 ± 0.034
surviving fraction (MDV3100; 50 nM): 0.949 ± 0.062
surviving fraction (MDV3100; 100 nM): 1.01 ± 0.06
surviving fraction (MDV3100; 500 nM): 1.11 ± 0.067
surviving fraction (MDV3100; 1000 nM): 0.946 ± 0.13
surviving fraction ([4]; 0.5 nM): 0.971 ± 0.052
surviving fraction ([4]; 1 nM): 1.04 ± 0.14
surviving fraction ([4]; 5 nM): 0.991 ± 0.044
surviving fraction ([4]; 10 nM): 1.01 ± 0.047
surviving fraction ([4]; 50 nM): 0.83 ± 0.029
surviving fraction ([4]; 100 nM): 0.661 ± 0.022
surviving fraction ([4]; 500 nM): 0.427 ± 0.012
surviving fraction ([4]; 1000 nM): 0.317 ± 0.026
surviving fraction (TIOGUANINE [5]; 0.5 nM): 1.07 ± 0.045
surviving fraction (TIOGUANINE [5]; 1 nM): 1.05 ± 0.14
surviving fraction (TIOGUANINE [5]; 5 nM): 1.01 ± 0.14
surviving fraction (TIOGUANINE [5]; 10 nM): 0.994 ± 0.076
surviving fraction (TIOGUANINE [5]; 50 nM): 1.06 ± 0.089
surviving fraction (TIOGUANINE [5]; 100 nM): 1.05 ± 0.12
surviving fraction (TIOGUANINE [5]; 500 nM): 1.02 ± 0.038
surviving fraction (TIOGUANINE [5]; 1000 nM): 1.14 ± 0.082
area under dose-response curve (SNX-5422 [6]): 2.19
area under dose-response curve (BI-2536 [7]): 2.69
area under dose-response curve (AFATINIB [8]): 1.78
area under dose-response curve [9]: 2.64
area under dose-response curve (TIOGUANINE [10]): 3.45
